In the SangsterLogP compilation one finds logP data, which are given here for eleven molecules.

The nature of this data set: method code SF-HPLC, from DOI: 10.1021/ac9902291.
Regarding `c1ccc2c(c1)ccc1c3ccsc3ccc21`, the logP (in general, a log measure of how a compound divides between an organic and an aqueous phase) was 5.35. Take `c1ccc2cc3sccc3cc2c1`: the lipophilicity (logP) worked out at 4.5. As for `Cc1cccc2ccsc12`, the logP was determined as 3.85.

As to `O=S1(=O)C=Cc2ccccc21`, the lipophilicity (logP) worked out at 1.01. The figure for `Cc1cc2ccccc2s1` is 3.71; for `c1ccc2c(c1)ccc1ccsc12` it is 4.55; for `c1ccc2c(c1)ccc1sccc12` it is 4.41. On to `c1ccc2c(c1)sc1ccccc12`, for which the log partition coefficient (logP) amounted to 4.36.

As to `c1ccc2c(c1)ccc1sc3ccccc3c12`, the logP was determined as 5.19.

As to `c1cc2ccc3cccc4sc(c1)c2c34`, the logP worked out at 4.95. In the case of `Cc1cccc2sccc12`, the lipophilicity (logP) worked out at 3.57.
